Measurements from patent publication US11111238B2, “Coumarin derivatives, processes for their preparation and uses thereof for the treatment of cancer” (Lead Discovery Center GmbH, priority 2017, dated 2021).

What was measured:
[1] = target: mitochondrial RNA-polymerase (POLRMT) (Mus musculus, UniProt Q8BKF1); test: Homogeneous TR-FRET assay for mitochondrial transcription activity; type: biochemical; conditions: homogeneous TR-FRET assay according to Example 4; activity class
In short: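 Mouse POLRMT, TFAM and TFB2M with linearized pUC-LSP template in 10 mM Tris-HCl pH 7.5, 10 mM MgCl2, 40 mM NaCl; compounds at 10 μM or serial dilution, 10 min RT preincubation. Started with 500 μM each […], 2 h RT; 407 bp RNA product detected by hybridized Eu-cryptate/ATTO647N probe TR-FRET (ex 340, em 665 nm).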

[2] = system: mitochondrial transcription (7S RNA) in HeLa cells; test: Quantitative real time-PCR assay of inhibition of mitochondrial transcription (cellular qPCR assay IMT); type: cell-based; conditions: Homo sapiens, 4 h compound incubation, qRT-PCR according to Example 5, activity class
In short: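 HeLa cells were exposed 4 h to compound dilution series or DMSO. Mitochondrial 7S RNA, with POLRMT for nuclear transcription, was measured by TaqMan qRT-PCR, normalised to TBP. Biological triplicates were analysed by ΔΔCt and expressed as Rq % (2^-ΔΔCt).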

CA-46 (lymphoma) = test: CellTiter GLO viability assay, CA-46; type: cell-based; conditions: Homo sapiens, CA46, 144 h, read-out: IC50 (μM) incubation time 144 h
Method: (§1) The CellTiter-Glo Luminescent Cell Viability Assay (Promega) is a homogeneous method of determining the number of viable cells in culture. It is based on quantification of ATP, indicating the presence of metabolically active cells.
(§2) […] After incubation for 3 h in humidified chambers at 37° C./5% CO2 compounds/DMSO were added at different concentrations. […] Cells treated with the compound vehicle DMSO were used as positive controls and cells treated with 10 μM Staurosporine served as negative controls. […] Thereon, mixture and assay plates were equilibrated at room temperature for 20 min. Equal volumes of the reagent-medium-mixture was added to the volume of culture medium present in each well.
(§3) The plates were mixed at ˜200 rpm for 2 minutes on an orbital shaker. The microplates were then incubated at room temperature for 10 minutes for stabilization of the luminescent signal. Following incubation the luminescence is recorded on a Victor microplate reader (Perkin Elmer) using 200 ms integration time. The data were then analyzed with Excel using the XLFIT Plugin (dose response Fit 205) for IC50-determination. As quality control the Z′-factor was calculated from 16 positive and negative control values. Only assay results showing a Z′-factor≥0.5 were used for further analysis.

HEC-59 (endometrial) = test: CellTiter GLO viability assay, HEC-59; type: cell-based; conditions: 144 h, read-out: IC50 (μM) incubation time 144 h
Method: as §1
(§4) Cells were seeded on day 1 at cell numbers that assure assay linearity and optimal signal intensity. After incubation for 3 h in humidified chambers at 37° C./5% CO2 compounds/DMSO were added at different concentrations. […] Cells treated with the compound vehicle DMSO were used as positive controls and cells treated with 10 μM Staurosporine served as negative controls. […] Thereon, mixture and assay plates were equilibrated at room temperature for 20 min. Equal volumes of the reagent-medium-mixture was added to the volume of culture medium present in each well.
as §3

HRT-18 (colon) = test: CellTiter GLO viability assay, HRT-18; type: cell-based; conditions: Homo sapiens, 144 h, read-out: IC50 (μM) incubation time 144 h
Method: as §1, §4, §3

NCI-H1299 (lung) = test: CellTiter GLO viability assay, NCI-H1299; type: cell-based; conditions: Homo sapiens, 144 h, read-out: IC50 (μM) incubation time 144 h
Method: as §1, §4, §3

NCI-H23 (lung) = test: CellTiter GLO viability assay, NCI-H23; type: cell-based; conditions: for IC50: Homo sapiens, NCI-H23 (lung), 144 h, read-out: IC50 (μM) incubation time 144 h; for sensitivity of the cell line (in words): NCl-H23
Method: as §1, §4, §3

NCI-H596 (lung) = test: CellTiter GLO viability assay, NCI-H596; type: cell-based; conditions: Homo sapiens, 144 h, read-out: IC50 (μM) incubation time 144 h
Method: as §1, §4, §3

SW403 (colon) = test: CellTiter GLO viability assay, SW403; type: cell-based; conditions: Homo sapiens, SW-403, 144 h, read-out: IC50 (μM) incubation time 144 h
Method: as §1, §2, §3

SW48 (colon) = test: CellTiter GLO viability assay, SW48; type: cell-based; conditions: Homo sapiens, 144 h, read-out: IC50 (μM) incubation time 144 h
Method: as §1, §4, §3

SW948 (colon) = test: CellTiter GLO viability assay, SW948; type: cell-based; conditions: Homo sapiens, 144 h, read-out: IC50 (μM) incubation time 144 h
Method: as §1, §4, §3

mitochondrial RNA-polymerase (POLRMT), sequence (Q8BKF1 42-1207): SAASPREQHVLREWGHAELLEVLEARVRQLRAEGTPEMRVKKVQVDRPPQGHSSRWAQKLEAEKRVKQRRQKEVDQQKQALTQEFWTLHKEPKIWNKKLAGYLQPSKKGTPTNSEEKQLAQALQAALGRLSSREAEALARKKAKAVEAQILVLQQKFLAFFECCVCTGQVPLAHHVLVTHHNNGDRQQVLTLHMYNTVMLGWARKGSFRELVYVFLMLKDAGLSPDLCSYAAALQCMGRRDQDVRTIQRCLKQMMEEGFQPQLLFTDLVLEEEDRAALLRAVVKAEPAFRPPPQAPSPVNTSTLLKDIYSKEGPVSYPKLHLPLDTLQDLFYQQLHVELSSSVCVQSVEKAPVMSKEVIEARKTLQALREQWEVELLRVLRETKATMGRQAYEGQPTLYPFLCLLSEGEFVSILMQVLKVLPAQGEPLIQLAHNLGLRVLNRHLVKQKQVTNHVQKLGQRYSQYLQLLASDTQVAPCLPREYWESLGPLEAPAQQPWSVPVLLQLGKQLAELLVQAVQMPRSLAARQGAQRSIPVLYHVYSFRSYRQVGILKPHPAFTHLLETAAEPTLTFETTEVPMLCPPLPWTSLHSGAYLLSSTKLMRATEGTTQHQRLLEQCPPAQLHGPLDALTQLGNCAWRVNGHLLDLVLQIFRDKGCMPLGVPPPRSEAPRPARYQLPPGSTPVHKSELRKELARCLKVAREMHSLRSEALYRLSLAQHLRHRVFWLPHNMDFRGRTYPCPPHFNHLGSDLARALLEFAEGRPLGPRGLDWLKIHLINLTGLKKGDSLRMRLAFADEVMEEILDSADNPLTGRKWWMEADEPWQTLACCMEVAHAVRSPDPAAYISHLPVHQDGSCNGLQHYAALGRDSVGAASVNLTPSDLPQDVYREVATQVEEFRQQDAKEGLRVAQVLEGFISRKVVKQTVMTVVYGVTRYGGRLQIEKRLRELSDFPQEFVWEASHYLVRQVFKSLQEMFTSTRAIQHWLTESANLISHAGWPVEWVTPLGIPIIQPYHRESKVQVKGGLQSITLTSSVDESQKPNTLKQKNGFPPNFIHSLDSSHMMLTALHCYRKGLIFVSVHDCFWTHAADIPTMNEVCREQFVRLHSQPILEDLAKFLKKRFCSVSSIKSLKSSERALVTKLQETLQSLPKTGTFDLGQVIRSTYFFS

SMILES	IC50 [1]	IC50 [2]	IC50 (CA-46 (lymphoma))	IC50 (HEC-59 (endometrial))	IC50 (HRT-18 (colon))	IC50 (NCI-H1299 (lung))	IC50 (NCI-H23 (lung))	sensitivity of the cell line (in words) (NCI-H23 (lung))	IC50 (NCI-H596 (lung))	IC50 (SW403 (colon))	IC50 (SW48 (colon))	IC50 (SW948 (colon))
CC(Oc1ccc2c(-c3ccc(F)cc3Cl)cc(=O)oc2c1)C(=O)N1CCC[C@H](C(=O)O)C1 (stereo partly drawn) [Compound 47, (3S)-1-(2-((4-(2-chloro-4-fluorophenyl)-2-oxo-2H-chromen-7-yl)oxy)propanoyl)piperidine-3-carboxylic acid]	< 20 nM	< 10 nM	0.1 to 1 µM	> 10 µM	≤ 0.1 µM	0.1 to 1 µM	> 10 µM	resistant	1 to 10 µM	0.1 to 1 µM	0.1 to 1 µM	0.1 to 1 µM
Cc1ccccc1-c1cc(=O)oc2cc(OC(C)C(=O)N(C)C)ccc12 (stereo not drawn) [Compound 38, N,N-dimethyl-2-[4-(o-tolyl)-2-oxo-chromen-7-yl]oxy-propanamide]	< 20 nM	< 10 nM	0.1 to 1 µM	> 10 µM	≤ 0.1 µM	0.1 to 1 µM	1 to 10 µM	moderate sensitivity	1 to 10 µM	0.1 to 1 µM	1 to 10 µM	0.1 to 1 µM
